Laboratory results reported in patent US11214803B2, “Modulators of YAP1 expression” (Ionis Pharmaceuticals, Inc., priority 2019, dated 2022).
Strand notation (5' to 3'): a small letter for the sugar, then the base; units joined by * are phosphorothioate-linked, units joined directly phosphodiester-linked; [ ] holds rarer units or linkages, { } end groups; capitals alone tell only the bases. e = 2'-O-(2-methoxyethyl) (MOE); k = constrained ethyl (cEt); [5mC] = 5-methylcytosine; d = 2'-deoxy (DNA); m = 2'-O-methyl

Tested on: Yap1 mRNA
Assay: Antisense inhibition of human Yap1 in SNU-449 cells by modified oligonucleotides, single dose (Example 5, RTS36584)
Type: cell-based
In short: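 Each modified oligonucleotide is applied by free uptake to SNU-449 cultures at 2,000 nM, and total RNA is harvested around 48 h later. Yap1 transcript, quantified with the RTS36584 set and corrected for RIBOGREEN RNA content, is given as % UTC. Asterisks mark sequences overlapping the amplicon.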

[1] = Table 51, Yap1 mRNA remaining as percent of untreated control (UT), SNU-449 cells, single dose
[2] = Table 43 experiment, SNU-449 cells, 10,000 cells per well, free uptake, 2,000 nM, approximately 48 hours, RTS36584, Yap1 mRNA normalized to RIBOGREEN, relative to untreated control cells
[3] = Table 45, Yap1 mRNA as percent of untreated control, SNU-449 cells, single dose
[4] = Table 41, SNU-449 cells, 10,000 cells per well, free uptake, 2,000 nM modified oligonucleotide, approximately 48 hours, RTS36584, normalized to RIBOGREEN, Yap1 mRNA relative to untreated control cells
[5] = Table 40 (separate experiment), SNU-449 cells, 10,000 cells per well, free uptake, 2,000 nM oligonucleotide, approx. 48 hours, RTS36584, normalized to RIBOGREEN, Yap1 mRNA relative to untreated control
[6] = Table 50, Yap1 mRNA remaining as percent of untreated control (UT), SNU-449 cells, single dose
[7] = Table 44 experiment, SNU-449 cells, 10,000 cells per well, free uptake, 2,000 nM, approximately 48 hours, RTS36584, Yap1 mRNA normalized to RIBOGREEN, relative to untreated control cells

1197260 (kT*kT*kA*dT*mA*dT*dG*dG*dT*dT*dT*dT*dG*kT*kG*kT) [Compound 1197260]
YAP1 (% UT) [1]: 65 % UT

1200784 (kT*kG*kT*d[5mC]*dT*mC*dA*dT*dG*d[5mC]*d[5mC]*dT*dT*kA*kT*kA; antisense) [Compound 1200784]
YAP1 (% UT) [1]: 19 % UT

1198272 (kT*kT*dT*dA*dA*dA*dG*dT*dG*dT*dA*eT*eG*eT*k[5mC]*kA; antisense) [Compound 1198272]
YAP1 (% UTC) [2]: 37 % UTC

1200849 (kA*kA*kT*dA*dT*mU*dG*d[5mC]*dA*dA*dT*d[5mC]*dT*kG*kT*k[5mC]; antisense) [Compound 1200849]
YAP1 (% UT) (Table 52, Yap1 mRNA, modified oligonucleotides targeting SEQ ID NO: 1 and 2): 53 % UT

1198371 (kA*dT*dT*dG*dT*d[5mC]*dT*d[5mC]*dA*dT*dG*k[5mC]*e[5mC]*kT*eT*kA; antisense) [Compound 1198371]
YAP1 (% UTC) (Table 39, SNU-449 cells, 10,000 cells per well, free uptake, 2,000 nM oligonucleotide, approx. 48 hours, RTS36584, normalized to RIBOGREEN, Yap1 mRNA relative to untreated control): 15 % UTC

1198290 (kT*kG*kG*dA*dA*dA*dT*dT*dG*dT*d[5mC]*dT*k[5mC]*eA*kT*eG; antisense) [Compound 1198290]
YAP1 (% UT) (Table 48, Yap1 mRNA level relative to untreated control, modified oligonucleotides targeting SEQ ID NO.: 1 and 2): 15 % UT

1198912 (kA*kA*d[5mC]*dA*d[5mC]*dT*dG*dA*dG*dG*dT*kA*dT*kA*dA*k[5mC]; antisense) [Compound 1198912]
YAP1 (% UTC) [3]: 78 % UTC

1095575 (antisense kA*k[5mC]*dT*dG*dA*dG*dG*dT*dA*dT*dA*eA*e[5mC]*eT*kG*kG) [Compound 1095575]
YAP1 (% UTC) [2]: 55 % UTC

1198736 (kT*eG*kA*dG*dG*dT*dA*dT*dA*dA*d[5mC]*dT*eG*eG*kG*k[5mC]; antisense) [Compound 1198736]
YAP1 (% UTC) [4]: 20 % UTC

1198929 (kA*kG*dT*dG*d[5mC]*dT*dT*dT*dG*dG*dA*kA*dG*kA*dT*k[5mC]) [Compound 1198929]
YAP1 (% UTC) [3]: 43 % UTC

1198672 (antisense kA*kT*dT*dT*dA*dG*dG*dA*dT*dG*d[5mC]*dA*kT*eG*kG*eT) [Compound 1198672]
YAP1 (% UTC) [4]: 41 % UTC

1198788 (antisense kA*eA*kG*dT*dG*dT*dA*dT*dG*dT*d[5mC]*dA*eG*eA*kA*kG) [Compound 1198788]
YAP1 (% UTC) [4]: 17 % UTC

1198702 (kT*kT*dT*dA*dA*dA*dG*dT*dG*dT*dA*dT*kG*eT*k[5mC]*eA; antisense) [Compound 1198702]
YAP1 (% UTC) (Table 42 (separate experiment), SNU-449 cells, 10,000 cells per well, free uptake, 2,000 nM modified oligonucleotide, approximately 48 hours, RTS36584, normalized to RIBOGREEN, Yap1 mRNA relative to untreated control cells): 74 % UTC

1198823 (kG*kG*dT*dA*dT*dA*dA*d[5mC]*dT*dG*dG*kG*e[5mC]*kA*eA*kA; antisense) [Compound 1198823]
YAP1 (% UT) (Table 46, Yap1 mRNA as percent of untreated control, SNU-449 cells, single dose): 65 % UT

1198442 (kT*dA*dA*dA*dG*dT*dG*dT*dA*dT*dG*kT*e[5mC]*kA*eG*kA; antisense) [Compound 1198442]
YAP1 (% UTC) [5]: 44 % UTC

1198622 (kT*kA*kA*dG*dT*dA*dA*dG*dG*dT*dT*dT*k[5mC]*k[5mC]*k[5mC]*eA; antisense) [Compound 1198622]
YAP1 (% UT) [6]: 26 % UT

1198615 (antisense kT*kT*kA*dA*dA*dG*dT*dG*dT*dA*dT*dG*kT*k[5mC]*kA*eG) [Compound 1198615]
YAP1 (% UT) [6]: 10 % UT

1197313 (kA*kG*kT*dG*mU*dA*dT*dG*dT*d[5mC]*dA*dG*dA*kA*kG*kA; antisense) [Compound 1197313]
YAP1 (% UT) [1]: 8 % UT

1198486 (antisense kA*kA*dG*d[5mC]*dA*d[5mC]*dT*dT*dT*dT*dA*e[5mC]*kA*eT*kT*eA) [Compound 1198486]
YAP1 (% UTC) [7]: 39 % UTC

1198485 (antisense kA*kG*d[5mC]*dA*d[5mC]*dT*dT*dT*dT*dA*d[5mC]*eA*kT*eT*kA*eG) [Compound 1198485]
YAP1 (% UTC) [2]: 64 % UTC

1198688 (antisense kA*kT*dA*dT*dT*dG*d[5mC]*dA*dA*dT*d[5mC]*dT*kG*eT*k[5mC]*eT) [Compound 1198688]
YAP1 (% UTC) [4]: 48 % UTC

1198477 (antisense kG*kA*dG*dG*dT*dA*dT*dA*dA*d[5mC]*dT*eG*kG*eG*k[5mC]*eA) [Compound 1198477]
YAP1 (% UTC) [7]: 47 % UTC

1198716 (kA*eA*kT*dT*dG*dT*d[5mC]*dT*d[5mC]*dA*dT*dG*e[5mC]*e[5mC]*kT*kT; antisense) [Compound 1198716]
YAP1 (% UTC) [5]: 27 % UTC
